Data set [1] in a line: Pharmacokinetic profiles in rats. The data set is classed as in vivo, rat. The settings on record: for clearance / AUC(0-t) / half-life / Vd: iv dosing 1 mg/kg; for AUC(0-t) / half-life / Vd / bioavailability: rat, plasma; for Vd: read-out: Vss; for bioavailability: oral bioavailability. On the procedure: The compounds disclosed herein are assessed in pharmacokinetic studies in mice, rats, dogs or monkeys. The compounds are administered as a water solution, 2% HPMC+1% TWEEN®80 in water solution, 5% DMSO+5% solutol in saline, 4% MC suspension or capsule. For the intravenous administration, the animals are generally given at 1 or 2 mg/kg dose. For the oral (p.o.) dosing, mice and rats are generally given 5 or 10 mg/kg dose, and dogs and monkeys are generally given 10 mg/kg dose. The blood samples (0.3 mL) are drawn at 0.25, 0.5, 1.0, 2.0, 3.0, 4.0, 6.0, 8.0, 12 and 24 h time points or 0.083, 0.25, 0.5, 1.0, 2.0, 4.0, 6.0, 8.0 and 24 h time points and centrifuged at 3,000 or 4000 rpm for 2 to 10 min. The plasma solutions are collected, stored at −20° C. or −70° C. until analyzed by LC/MS/MS as described above.

Data set [2] is described as follows: Compound stability in rat liver microsomes. The data set is classed as in vitro ADME. The settings on record: for CLint scaled at 5 μM: liver microsomes, in vivo CLint extrapolated from rat liver microsome incubation; for CLint scaled at 5 μM / half-life at 5 μM: pH 7.4; for half-life at 5 μM: read-out: Rat T1/2. On the procedure:
(§1) Human or rat liver microsomes incubations were conducted in duplicate in polypropylene tubes. The typical incubation mixtures consisted of human or rat liver microsomes (0.5 mg protein/mL), compounds of interest (5 μM) and NADPH (1.0 mM) in a total volume of 200 μL potassium phosphate buffer (PBS, 100 mM, pH 7.4). Compounds were dissolved in DMSO and diluted with PBS such that the final concentration of DMSO was 0.05%. The enzymatic reactions were commenced with the addition of protein after a 3-min preincubation and incubated in a water bath open to the air at 37° C. Reactions were terminated at various time points (0, 5, 10, 15, 30, 60 min) by adding equal volume of ice-cold acetonitrile. The samples were stored at −80° C. until LC/MS/MS assays.
(§2) The concentrations of compounds in the incubation mixtures of human or rat liver microsomes were determined by a LC/MS/MS method. The ranges of the linearity in the concentration range were determined for each tested compounds.
(§3) A parallel incubation was performed using denatured microsomes as the negative control, and reactions were terminated at various time points (0, 15, 60 min) after incubation at 37° C.
(§4) Dextromethorphan (70 μM) was selected as the positive control, and reactions were terminated at various time points (0, 5, 10, 15, 30, 60 min) after incubation at 37° C. Both positive and negative control samples were included in each assay to ensure the integrity of the microsomal incubation system.
(§5) The concentrations of compounds in human or rat liver microsome incubations were plotted as a percentage of the relevant zero time point control for each reaction.

Data set [3] in a line: Compound stability in human liver microsomes. The data set is classed as in vitro ADME. Conditions: pH 7.4; for CLint scaled at 5 μM: liver microsomes, in vivo CLint extrapolated from human liver microsome incubation; for half-life at 5 μM: human liver microsomes 0.5 mg protein/mL, compound 5 μM, NADPH, 37° C., read-out: Human T1/2. On the procedure:
as §1, §2, §3, §4, §5

[4] abbreviates: rat liver microsomes 0.5 mg protein/mL, compound 5 μM, NADPH, 37° C.

With `Cc1noc(-c2c(N)ncnc2N[C@@H](C)c2nc3cccc(C#CC(C)(C)O)c3c(=O)n2-c2ccccc2)n1` [Example 1, (S)-2-(1-((6-amino-5-(3-methyl-1,2,4-oxadiazol-5-yl)pyrimidin-4-yl)amino)ethyl)-5-(3-hydroxy-3-methylbut-1-yn-1-yl)-3-phenylquinazolin-4(3H)-one], in data set [1], the clearance came out at 9.17 mL/min/kg, the AUC(0-t) amounted to 1440 ng·h/mL, the half-life was 3.24 h and the Vd stood at 2.38 L/kg. For the same molecule, the bioavailability in data set [1] turned out to be 120%. For the same molecule, the CLint scaled at 5 μM in data set [2] was 2.5 mL/min/kg. For the same molecule, the half-life at 5 μM in data set [2] (setting [4]) turned out to be 16.3 h. In data set [3], the CLint scaled at 5 μM was 14.3 mL/min/kg and the half-life at 5 μM is 2.03 h.
Turning to `Cc1nnc(-c2c(N)ncnc2N[C@@H](C)c2nc3cccc(C#CC(C)(C)O)c3c(=O)n2-c2ccccc2)o1` [Example 2, (S)-2-(1-((6-amino-5-(5-methyl-1,3,4-oxadiazol-2-yl)pyrimidin-4-yl)amino)ethyl)-5-(3-hydroxy-3-methylbut-1-yn-1-yl)-3-phenylquinazolin-4(3H)-one], in data set [1], the clearance was found to be 11.3 mL/min/kg, the AUC(0-t) turned out to be 1370 ng·h/mL, the half-life is 1.42 h and the Vd stood at 1.3 L/kg. The bioavailability in data set [1] was 106%. Besides, in data set [2] (setting [4]), the “Rat T1/2” value is reported as “∞”. In addition, in data set [3], the CLint scaled at 5 μM was 3.84 mL/min/kg and the half-life at 5 μM came to 7.54 h.
With `Cc1nc(-c2c(N)ncnc2N[C@@H](C)c2nc3cccc(C#CC(C)(C)O)c3c(=O)n2-c2ccccc2)no1` [Example 3, (S)-2-(1-((6-amino-5-(5-methyl-1,2,4-oxadiazol-3-yl)pyrimidin-4-yl)amino)ethyl)-5-(3-hydroxy-3-methylbut-1-yn-1-yl)-3-phenylquinazolin-4(3H)-one], in data set [1], the clearance came out at 13 mL/min/kg, the AUC(0-t) is 1210 ng·h/mL, the half-life is 1.76 h and the bioavailability amounted to 146%. The CLint scaled at 5 μM in data set [2] was 4.75 mL/min/kg. Moreover, the half-life at 5 μM in data set [2] (setting [4]) came to 8.72 h. For the same molecule, in data set [3], the CLint scaled at 5 μM is 9.46 mL/min/kg and the half-life at 5 μM turned out to be 3.06 h.
`C[C@H](Nc1ncnc(N)c1-c1nnn(C)n1)c1nc2cccc(C#CC(C)(C)O)c2c(=O)n1-c1ccccc1` [Example 4, (S)-2-(1-((6-amino-5-(2-methyl-2H-tetrazol-5-yl)pyrimidin-4-yl)amino)ethyl)-5-(3-hydroxy-3-methylbut-1-yn-1-yl)-3-phenylquinazolin-4(3H)-one]: in data set [1], the clearance worked out at 8.33 mL/min/kg, the AUC(0-t) turned out to be 1870 ng·h/mL, the half-life was 1.87 h and the Vd amounted to 1.04 L/kg. Also, the bioavailability in data set [1] is 134%. The CLint scaled at 5 μM in data set [2] is 5.58 mL/min/kg. In data set [2] (setting [4]), the half-life at 5 μM worked out at 7.41 h. In data set [3], the CLint scaled at 5 μM is 5.8 mL/min/kg and the half-life at 5 μM stood at 5 h.
As for `Cc1nnc(-c2c(N)ncnc2N[C@@H](C)c2nc3cccc(C#CC(C)O)c3c(=O)n2-c2ccccc2)o1` (stereo partly drawn) [Example 7, 2-((S)-1-((6-amino-5-(5-methyl-1,3,4-oxadiazol-2-yl)pyrimidin-4-yl)amino)ethyl)-5-(3-hydroxybut-1-yn-1-yl)-3-phenylquinazolin-4(3H)-one], in data set [1], the clearance was 19.3 mL/min/kg, the AUC(0-t) is 862 ng·h/mL, the half-life is 0.61 h and the Vd was found to be 0.61 L/kg. Also, in data set [1], the bioavailability was determined as 38.3%. Besides, the CLint scaled at 5 μM in data set [2] is 15.3 mL/min/kg. In data set [2] (setting [4]), the half-life at 5 μM amounted to 2.71 h. Also, in data set [3], the CLint scaled at 5 μM was 6.34 mL/min/kg and the half-life at 5 μM worked out at 4.57 h.
As to `CC#Cc1cccc2nc([C@H](C)Nc3ncnc(N)c3-c3nnc(C)o3)n(C3CC3)c(=O)c12` [Example 22], in data set [1], the clearance stood at 25.3 mL/min/kg, the AUC(0-t) was found to be 675 ng·h/mL, the half-life was 0.97 h and the Vd was determined as 1.83 L/kg. The bioavailability in data set [1] was 83.7%. Moreover, the CLint scaled at 5 μM in data set [2] was 41.8 mL/min/kg. In addition, the half-life at 5 μM in data set [2] (setting [4]) was determined as 0.991 h. Also, in data set [3], the CLint scaled at 5 μM was 62.5 mL/min/kg and the half-life at 5 μM was 0.464 h.
Take `Cc1nc(-c2c(N)ncnc2N[C@@H](C)c2nc3cccc(C#CCO)c3c(=O)n2-c2ccccc2)no1` [Example 38, (S)-2-(1-((6-amino-5-(5-methyl-1,2,4-oxadiazol-3-yl)pyrimidin-4-yl)amino)ethyl)-5-(3-hydroxyprop-1-yn-1-yl)-3-phenylquinazolin-4(3H)-one]: in data set [1], the clearance was determined as 21.3 mL/min/kg, the AUC(0-t) is 790 ng·h/mL, the half-life is 0.76 h and the Vd stood at 1.35 L/kg. Further, the bioavailability in data set [1] came out at 40.4%. The CLint scaled at 5 μM in data set [2] is 52.7 mL/min/kg. Further, the half-life at 5 μM in data set [2] (setting [4]) came out at 0.785 h. Moreover, in data set [3], the CLint scaled at 5 μM is 40.4 mL/min/kg and the half-life at 5 μM amounted to 0.717 h.
On to `C#Cc1cccc2nc([C@H](C)Nc3ncnc(N)c3-c3nnn(C)n3)n(C3CC3)c(=O)c12` [Example 52, (S)-2-(1-((6-amino-5-(2-methyl-2H-tetrazol-5-yl)pyrimidin-4-yl)amino)ethyl)-3-cyclopropyl-5-ethynylquinazolin-4(3H)-one], for which, in data set [1], the clearance amounted to 23 mL/min/kg, the AUC(0-t) amounted to 722 ng·h/mL, the half-life was 0.73 h and the Vd was found to be 1.11 L/kg. Further, in data set [1], the bioavailability worked out at 70.8%. For the same molecule, the CLint scaled at 5 μM in data set [2] was 79.8 mL/min/kg. Further, the half-life at 5 μM in data set [2] (setting [4]) worked out at 0.519 h. Moreover, in data set [3], the CLint scaled at 5 μM was 89.4 mL/min/kg and the half-life at 5 μM stood at 0.324 h.

The term clearance denotes the rate of elimination divided by the concentration. By AUC(0-t) is commonly meant exposure summed from dosing to a finite time, without extrapolation to infinity. Low values mean low exposure, high ones high exposure. The CLint scaled is a measure of how fast metabolising enzymes remove a compound, apart from limits set by blood flow.

The record behind these values is US10751339B2, “Substituted aminopyrimidine compounds and methods of use” (SUNSHINE LAKE PHARMA CO., LTD., priority 2018, dated 2020).
